Test results published in ChEMBL document CHEMBL4831514, “Novel betulin dicarboxylic acid ester derivatives as potent antiviral agents: Design, synthesis, biological evaluation, structure-activity relationship and in-silico study” (Eur J Med Chem, 2021).
Active and inactive are the calls of the source. The calls are words filed in the database; no cut-off is given here.

Key:
A549 = experiment: Cytotoxicity against human A549 cells assessed as reduction in cell viability incubated for 48 hrs by MTT assay; format: cell-based; settings: a549, 48 h
Human alphaherpesvirus 1 [1] = experiment: Antiviral activity against Human herpesvirus 1 MacIntyre infected in A549 cells assessed as reduction in virus titer preincubated for 24 hrs followed by viral infection and measured after 72 hrs by microscopic analysis; format: functional, organism-based
Human adenovirus 5 [2] = experiment: Antiviral activity against Human adenovirus 5 Adenoid 75 infected in A549 cells assessed as inhibition of viral adsorption at early stage of replication treated for 1 hr during viral infection followed by replacement with fresh medium and measured after 72 hrs by MTT assay; format: functional, organism-based
Human alphaherpesvirus 1 [3] = experiment: Antiviral activity against Human herpesvirus-1 MacIntyre infected in A549 cells assessed as inhibition of viral adsorption at early stage of replication treated for 1 hr during viral infection followed by replacement with fresh medium and measured after 48 hrs by MTT assay; format: functional, organism-based
Enterovirus E = experiment: Antiviral activity against Enterovirus E LCR-4 infected in A549 cells assessed as inhibition of viral adsorption at early stage of replication treated for 1 hr during viral infection followed by replacement with fresh medium and measured after 72 hrs by MTT assay; format: functional, organism-based
[4] = tested on: Vesicular stomatitis virus; experiment: Antiviral activity against Vesicular stomatitis virus Indiana infected in A549 cells assessed as reduction in virus titer preincubated for 24 hrs followed by viral infection and measured after 72 hrs by microscopic analysis; format: functional, organism-based
Human adenovirus 5 [5] = experiment: Antiviral activity against Human adenovirus 5 Adenoid 75 infected in A549 cells assessed as reduction in virus titer preincubated for 24 hrs followed by viral infection and measured after 72 hrs by microscopic analysis; format: functional, organism-based
MDCK = experiment: Cytotoxicity against MDCK cells assessed as reduction in cell viability incubated for 72 hrs by MTT assay; format: cell-based, Canis lupus familiaris; settings: dog, mdck, 72 h

C=C(C)[C@@H]1CC[C@]2(COC(=O)/C=C(\C)C(=O)N3CCSCC3)CC[C@]3(C)[C@H](CC[C@@H]4[C@@]5(C)CC[C@H](O)C(C)(C)[C@@H]5CC[C@]43C)[C@@H]12
CC20 (A549): 61.5 µM
Activity (Human alphaherpesvirus 1 [1]): inactive
Activity (Human adenovirus 5 [2]): inactive
Activity (Human alphaherpesvirus 1 [3]): inactive
Activity (Enterovirus E): inactive
Activity [4]: inactive
Activity (Human adenovirus 5 [5]): inactive
CC20 (MDCK): 61.5 µM

C#CCNC(=O)CCC(=O)OC[C@]12CC[C@@H](C(=C)C)C1[C@H]1CC[C@@H]3[C@@]4(C)CC[C@H](O)C(C)(C)[C@@H]4CC[C@@]3(C)[C@]1(C)CC2 (single isomer, unassigned)
CC20 (A549): 10.78 µM
Activity (Human alphaherpesvirus 1 [1]): inactive
Activity (Human adenovirus 5 [2]): inactive
Activity (Human alphaherpesvirus 1 [3]): inactive
Activity (Enterovirus E): inactive
Activity [4]: inactive
Activity (Human adenovirus 5 [5]): inactive
CC20 (MDCK): 5.34 µM

C=C(C)[C@@H]1CC[C@]2(COC(=O)/C=C/C(=O)O)CC[C@]3(C)[C@H](CC[C@@H]4[C@@]5(C)CC[C@H](O)C(C)(C)[C@@H]5CC[C@]43C)[C@@H]12
CC20 (A549): 11.55 µM
Activity (Human alphaherpesvirus 1 [1]): inactive
Activity (Human adenovirus 5 [2]): inactive
Activity (Human alphaherpesvirus 1 [3]): inactive
Activity (Enterovirus E): inactive
Activity [4]: inactive
Activity (Human adenovirus 5 [5]): inactive
CC20 (MDCK): 5.73 µM

C#CCNC(=O)CCCC(=O)OC[C@]12CC[C@@H](C(=C)C)[C@@H]1[C@H]1CC[C@@H]3[C@@]4(C)CC[C@H](O)C(C)(C)[C@@H]4CC[C@@]3(C)[C@]1(C)CC2
CC20 (A549): 42.09 µM
Activity (Human alphaherpesvirus 1 [1]): inactive
Activity (Human adenovirus 5 [2]): inactive
Activity (Human alphaherpesvirus 1 [3]): inactive
Activity (Enterovirus E): inactive
Activity [4]: inactive
Activity (Human adenovirus 5 [5]): inactive
CC20 (MDCK): 1.18 µM

C=C(C)[C@@H]1CC[C@]2(COC(=O)CCCCCCCCCC(=O)N3CCCCC3)CC[C@]3(C)[C@H](CC[C@@H]4[C@@]5(C)CC[C@H](O)C(C)(C)[C@@H]5CC[C@]43C)[C@@H]12
CC20 (A549): 127.23 µM
Activity (Human alphaherpesvirus 1 [1]): inactive
Activity (Human adenovirus 5 [2]): inactive
Activity (Human alphaherpesvirus 1 [3]): inactive
Activity (Enterovirus E): inactive
Activity [4]: inactive
Activity (Human adenovirus 5 [5]): inactive
CC20 (MDCK): 127.84 µM

C=C(C)[C@@H]1CC[C@]2(COC(=O)CCC(=O)N3CCCCC3)CC[C@]3(C)[C@H](CC[C@@H]4[C@@]5(C)CCC(O)C(C)(C)[C@@H]5CC[C@]43C)[C@@H]12 (single isomer, unassigned)
CC20 (A549): 69.83 µM
Activity (Human alphaherpesvirus 1 [1]): inactive
Activity (Human adenovirus 5 [2]): inactive
Activity (Human alphaherpesvirus 1 [3]): inactive
Activity (Enterovirus E): inactive
Activity [4]: inactive
Activity (Human adenovirus 5 [5]): inactive
CC20 (MDCK): 17.46 µM

C#CCNC(=O)c1cccc(C(=O)OC[C@]23CC[C@@H](C(=C)C)[C@@H]2[C@H]2CC[C@@H]4C5(C)CC[C@H](O)C(C)(C)[C@@H]5CC[C@@]4(C)[C@]2(C)CC3)c1 (single isomer, unassigned)
CC20 (A549): 159.24 µM
Activity (Human alphaherpesvirus 1 [1]): inactive
Activity (Human adenovirus 5 [2]): inactive
Activity (Human alphaherpesvirus 1 [3]): inactive
Activity (Enterovirus E): inactive
Activity [4]: inactive
Activity (Human adenovirus 5 [5]): inactive
CC20 (MDCK): 159.24 µM

C=C(C)[C@@H]1CC[C@]2(COC(=O)CCC(=O)O)CC[C@]3(C)[C@H](CC[C@@H]4[C@@]5(C)CCC(O)C(C)(C)[C@@H]5CC[C@]43C)[C@@H]12 (single isomer, unassigned)
CC20 (A549): 11.51 µM
Activity (Human alphaherpesvirus 1 [1]): inactive
Activity (Human adenovirus 5 [2]): inactive
Activity (Human alphaherpesvirus 1 [3]): inactive
Activity (Enterovirus E): inactive
Activity [4]: inactive
Activity (Human adenovirus 5 [5]): inactive
CC20 (MDCK): 11.51 µM

C=C(C)[C@@H]1CCC2(COC(=O)CCCCCCCCCC(=O)N3CCSCC3)CC[C@]3(C)[C@H](CC[C@@H]4[C@@]5(C)CC[C@H](O)C(C)(C)[C@@H]5CC[C@]43C)[C@@H]12 (single isomer, unassigned)
CC20 (A549): 114.81 µM
Activity (Human alphaherpesvirus 1 [1]): inactive
Activity (Human adenovirus 5 [2]): inactive
Activity (Human alphaherpesvirus 1 [3]): inactive
Activity (Enterovirus E): inactive
Activity [4]: inactive
Activity (Human adenovirus 5 [5]): inactive
CC20 (MDCK): 114.81 µM

C#CC1(NC(=O)CCCC(=O)OC[C@]23CCC(C(=C)C)[C@@H]2[C@H]2CC[C@@H]4[C@@]5(C)CC[C@H](O)C(C)(C)[C@@H]5CC[C@@]4(C)[C@]2(C)CC3)CCCCC1 (single isomer, unassigned)
CC20 (A549): 108.7 µM
Activity (Human alphaherpesvirus 1 [1]): inactive
Activity (Human adenovirus 5 [2]): inactive
Activity (Human alphaherpesvirus 1 [3]): inactive
Activity (Enterovirus E): inactive
Activity [4]: inactive
Activity (Human adenovirus 5 [5]): inactive
CC20 (MDCK): 108.7 µM

C#CCNC(=O)/C(C)=C/C(=O)OC[C@]12CC[C@@H](C(=C)C)[C@@H]1[C@H]1CC[C@@H]3[C@@]4(C)CC[C@H](O)C(C)(C)[C@@H]4CC[C@@]3(C)[C@]1(C)CC2
CC20 (A549): 10.56 µM
Activity (Human alphaherpesvirus 1 [1]): inactive
Activity (Human adenovirus 5 [2]): inactive
Activity (Human alphaherpesvirus 1 [3]): inactive
Activity (Enterovirus E): inactive
Activity [4]: inactive
Activity (Human adenovirus 5 [5]): inactive
CC20 (MDCK): 84.46 µM

C=C(C)[C@@H]1CC[C@]2(CO)CC[C@]3(C)[C@H](CC[C@@H]4[C@@]5(C)CC[C@H](O)C(C)(C)[C@@H]5CC[C@]43C)[C@@H]12 [BETULIN]
CC20 (A549): 28.22 µM
Activity (Human alphaherpesvirus 1 [1]): inactive
Activity (Human adenovirus 5 [2]): inactive
Activity (Human alphaherpesvirus 1 [3]): inactive
Activity (Enterovirus E): inactive
Activity [4]: inactive
Activity (Human adenovirus 5 [5]): inactive
CC20 (MDCK): 28.22 µM

C=C(C)[C@@H]1CC[C@]2(COC(=O)CCC(=O)N3CCOCC3)CC[C@]3(C)[C@H](CC[C@@H]4[C@@]5(C)CC[C@H](O)C(C)(C)[C@@H]5CC[C@]43C)[C@@H]12
CC20 (A549): 9.63 µM
Activity (Human alphaherpesvirus 1 [1]): inactive
Activity (Human adenovirus 5 [2]): inactive
Activity (Human alphaherpesvirus 1 [3]): inactive
Activity (Enterovirus E): inactive
Activity [4]: inactive
Activity (Human adenovirus 5 [5]): inactive
CC20 (MDCK): 4.78 µM

C=C(C)[C@@H]1CC[C@]2(COC(=O)c3cccc(C(=O)O)c3)CC[C@]3(C)[C@H](CC[C@@H]4[C@@]5(C)CC[C@H](O)C(C)(C)[C@@H]5CC[C@]43C)[C@@H]12
CC20 (A549): 21.15 µM
Activity (Human alphaherpesvirus 1 [1]): inactive
Activity (Human adenovirus 5 [2]): inactive
Activity (Human alphaherpesvirus 1 [3]): inactive
Activity (Enterovirus E): inactive
Activity [4]: inactive
Activity (Human adenovirus 5 [5]): inactive
CC20 (MDCK): 42.3 µM

C=C(C)[C@@H]1CC[C@]2(COC(=O)CCCC(=O)N3CCSCC3)CC[C@]3(C)[C@H](CC[C@@H]4[C@@]5(C)CC[C@H](O)C(C)(C)[C@@H]5CC[C@]43C)[C@@H]12
CC20 (A549): 122.7 µM
Activity (Human alphaherpesvirus 1 [1]): inactive
Activity (Human adenovirus 5 [2]): inactive
Activity (Human alphaherpesvirus 1 [3]): inactive
Activity (Enterovirus E): inactive
Activity [4]: inactive
Activity (Human adenovirus 5 [5]): inactive
CC20 (MDCK): 61.35 µM

C=C(C)[C@@H]1CC[C@]2(COC(=O)CCC(=O)N3CCSCC3)CC[C@]3(C)[C@H](CC[C@@H]4[C@@]5(C)CC[C@H](O)C(C)(C)[C@@H]5CC[C@]43C)[C@@H]12
CC20 (A549): 62.42 µM
Activity (Human alphaherpesvirus 1 [1]): inactive
Activity (Human adenovirus 5 [2]): inactive
Activity (Human alphaherpesvirus 1 [3]): inactive
Activity (Enterovirus E): inactive
Activity [4]: inactive
Activity (Human adenovirus 5 [5]): inactive
CC20 (MDCK): 124.84 µM

C=C(C)[C@@H]1CC[C@]2(COC(=O)/C=C(\C)C(=O)O)CC[C@]3(C)[C@H](CC[C@@H]4[C@@]5(C)CC[C@H](O)C(C)(C)[C@@H]5CC[C@]43C)[C@@H]12
CC20 (A549): 11.26 µM
Activity (Human alphaherpesvirus 1 [1]): inactive
Activity (Human adenovirus 5 [2]): inactive
Activity (Human alphaherpesvirus 1 [3]): inactive
Activity (Enterovirus E): inactive
Activity [4]: inactive
Activity (Human adenovirus 5 [5]): inactive
CC20 (MDCK): 5.63 µM

Nc1ccn(C[C@@H](CO)OCP(=O)(O)O)c(=O)n1.O.O [CIDOFOVIR]
CC20 (A549): 358.42 µM
Activity (Human adenovirus 5 [2]): inactive
Activity (Human alphaherpesvirus 1 [3]): inactive
Activity (Enterovirus E): inactive

C#CC1(NC(=O)c2cccc(C(=O)OC[C@]34CC[C@@H](C(=C)C)[C@@H]3[C@H]3CC[C@@H]5[C@@]6(C)CC[C@H](O)C(C)(C)[C@@H]6CC[C@@]5(C)[C@]3(C)CC4)c2)CCCCC1
CC20 (A549): 104.82 µM
Activity (Human alphaherpesvirus 1 [1]): inactive
Activity (Human adenovirus 5 [2]): inactive
Activity (Human alphaherpesvirus 1 [3]): inactive
Activity (Enterovirus E): inactive
Activity [4]: inactive
Activity (Human adenovirus 5 [5]): inactive
CC20 (MDCK): 104.82 µM

C#CCNC(=O)CCCCCCCCCC(=O)OC[C@]12CC[C@@H](C(=C)C)[C@@H]1[C@H]1CC[C@@H]3[C@@]4(C)CC[C@H](O)C(C)(C)[C@@H]4CC[C@@]3(C)[C@]1(C)CC2
CC20 (A549): 38.46 µM
Activity (Human alphaherpesvirus 1 [1]): inactive
Activity (Human adenovirus 5 [2]): inactive
Activity (Human alphaherpesvirus 1 [3]): inactive
Activity (Enterovirus E): inactive
Activity [4]: inactive
Activity (Human adenovirus 5 [5]): inactive
CC20 (MDCK): 153.85 µM
